In patent publication US8586747B2, “3,3-dimethyl tetrahydroquinoline derivatives” (Hoffmann-La Roche Inc., priority 2010, dated 2013):

Test system: AMP-activated protein kinase (AMPK)
Test: ADP Quest assay for AMPK activators
Format: biochemical
Parameters: key: fold AMPK activation with vs without activator at 30 µM
Conditions: fold of AMPK activation to phosphorylate SAMS peptide without and with an activator at the concentration of 30 µM
Protocol: ADP Quest™ Assay for AMPK Activators
This method evaluates AMP-activated protein kinase (AMPK) activity through detecting the accumulation of ADP product using an ADP Quest kit and determining the E30 values of the small molecular AMPK activators. ADP Quest kit (DiscoveRx, Fremont, Calif.) is stored at −20° C. before use. Before an experiment, thaw the kit (include assay buffer, ADP standard solution, reagent A and reagent B) and equilibrate to room temperature. Dispense the ADP Quest reagents into single-use aliquots and store at −20° C. The compound concentrations typically range from 0 µM to 100 µM by 2-fold dilution. AMP concentrations range from […] to 1 mM as the reference control. In an assay, thaw and equilibrate the assay buffer, reagent A and reagent B to room temperature for 30 minutes prior to use. Mix ATP, SAMS peptide substrate and compound, and place them into the 384-well assay plate. Add reagent A and B based on the assay kit protocol. Incubate the assay plate at room temperature for 30 minutes after addition the mixture followed by the addition of AMPK protein (Invitrogen, CA) to initiate the AMPK phosphorylation reaction. At the same time, reactions with AMPK activator AMP in the absence of enzyme is included as blank control. The reaction fluorescence signal is monitored and recorded on Envision in kinetic mode with the excitation wavelength of 530 nm and emission wavelength of 590 nm. The E30 value, defined as the fold of AMPK activation to phosphorylate SAMS peptide without and with an activator at the concentration of 30 µM, is calculated and analyzed using Prism 5.0.

**Q.** How did the E30 turn out when CC(C)C1COC(=O)N1c1cccc(C2Nc3ccc(C(=O)O)cc3CC2(C)C)c1 (stereo in doubt) [Example 119, 2-[3-((S)-4-Isopropyl-2-oxo-oxazolidin-3-yl)-phenyl]-3,3-dimethyl-1,2,3,4-tetrahydro-quinoline-6-carboxylic acid] was run?
**A.** Its E30 is 1.5.

**Q.** How did the E30 turn out when CC1(C)Cc2cc(C(=O)O)ccc2NC1c1cccc(N2C(=O)OCC2Cc2ccccc2)c1 (stereo in doubt) [Example 124, 2-[3-((S)-4-Benzyl-2-oxo-oxazolidin-3-yl)-phenyl]-3,3-dimethyl-1,2,3,4-tetrahydro-quinoline-6-carboxylic acid] was run?
**A.** Its E30 is 1.34.

**Q.** For CC1(C)Cc2cc(C(=O)O)ccc2NC1c1cccc(N2C(=O)OCC2Cc2ccccc2)c1 (stereo in doubt) [Example 127, 2-[3-((R)4-Benzyl-2-oxo-oxazolidin-3-yl)-phenyl]-3,3-dimethyl-1,2,3,4-tetrahydro-quinoline-6-carboxylic acid], which E30 is on record?
**A.** Its E30 is 1.26.

**Q.** How did the E30 turn out when CC1(C)Cc2cc(C(=O)O)ccc2NC1c1cccc(NC(=O)NCc2ccccc2)c1 (stereo not shown) [Example 1, 2-[3-(3-Benzyl-ureido)-phenyl]-3,3-dimethyl-1,2,3,4-tetrahydro-quinoline-6-carboxylic acid] was run?
**A.** Its E30 is 1.43.

**Q.** CC1(C)Cc2cc(Cl)cc(C(=O)NS(=O)(=O)C3CC3)c2NC1c1cccc(NC(=O)c2cnccn2)c1 (stereo not shown) [Example 2, Pyrazine-2-carboxylic acid [3-(6-chloro-8-cyclopropanesulfonylaminocarbonyl-3,3-dimethyl-1,2,3,4-tetrahydro-quinolin-2-yl)-phenyl]-amide] was tested. Which E30 did it give?
**A.** The E30 was 1.42.

**Q.** For CC1(C)Cc2cc(C(=O)O)ccc2NC1c1cccc(NC(=O)c2cccnc2)c1 (stereo not shown) [Example 3, 3,3-Dimethyl-2-{3-[(pyridine-3-carbonyl)-amino]-phenyl}-1,2,3,4-tetrahydro-quinoline-6-carboxylic acid], which E30 is on record?
**A.** The E30 was 1.33.

**Q.** With CC1(C)Cc2cc(C(=O)O)ccc2NC1c1cccc(NC(=O)c2ccccn2)c1 (stereo not shown) [Example 4, 3,3-Dimethyl-2-{3-[(pyridine-2-carbonyl)-amino]-phenyl}-1,2,3,4-tetrahydro-quinoline-6-carboxylic acid] as the compound, how does the E30 read?
**A.** Its E30 is 1.33.

**Q.** How did the E30 turn out when CC1(C)Cc2cc(C(=O)O)ccc2NC1c1cccc(NC(=O)c2cnccn2)c1 (stereo not shown) [Example 5, 3,3-Dimethyl-2-{3-[(pyrazine-2-carbonyl)-amino]-phenyl}-1,2,3,4-tetrahydro-quinoline-6-carboxylic acid] was run?
**A.** The E30 was 1.32.

**Q.** For CC1(C)Cc2cc(C(=O)O)ccc2NC1c1cccc(NC(=O)c2cccc(F)c2)c1 (stereo not shown) [Example 6, 2-[3-(3-fluoro-benzoylamino)-phenyl]-3,3-dimethyl-1,2,3,4-tetrahydro-quinoline-6-carboxylic acid], which E30 is on record?
**A.** The E30 was 1.31.

**Q.** CC1(C)Cc2cc(C(=O)O)ccc2NC1c1cccc(C(=O)O)c1 (stereo not shown) [Example 7, 2-(3-Carbonyl-phenyl)-3,3-dimethyl-1,2,3,4-tetrahydro-quinoline-6-carboxylic acid] was tested. Which E30 did it give?
**A.** The E30 was 1.31.

**Q.** CC1(C)Cc2cc(C(=O)NS(C)(=O)=O)ccc2NC1c1cccc(N2CCOCC2)c1 (stereo not shown) [Example 8, N-[3,3-dimethyl-2-(3-morpholin-4-yl-phenyl)-1,2,3,4-tetrahydro-quinoline-6-carbonyl]-methanesulfonamide] was tested. Which E30 did it give?
**A.** The E30 was 1.29.

**Q.** With CC1(C)Cc2cc(C(=O)NS(C)(=O)=O)ccc2NC1c1cccc(C(=O)Nc2ccccc2)c1 (stereo not shown) [Example 9, 3-(6-Methanesulfonylaminocarbonyl-3,3-dimethyl-1,2,3,4-tetrahydro-quinolin-2-yl)-N-phenyl-benzamide] as the compound, how does the E30 read?
**A.** The E30 was 1.28.

**Q.** Which E30 does the source give for CC(C)S(=O)(=O)NC(=O)c1ccc2c(c1)CC(C)(C)C(c1cccc(N3CCOCC3)c1)N2 (stereo not shown) [Example 10, Propane-2-sulfonic acid [3,3-dimethyl-2-(3-morpholin-4-yl-phenyl)-1,2,3,4-tetrahydro-quinoline-6-carbonyl]-amide] here?
**A.** The E30 was 1.27.

**Q.** CC1(C)Cc2cc(C(=O)NS(C)(=O)=O)ccc2NC1c1cccc(NC(=O)c2cnccn2)c1 (stereo not shown) [Example 11, Pyrazine-2-carboxylic acid [3-(6-methanesulfonylaminocarbonyl-3,3-dimethyl-1,2,3,4-tetrahydro-quinolin-2-yl)-phenyl]-amide] was tested. Which E30 did it give?
**A.** The E30 was 1.25.

**Q.** CC1(C)Cc2cc(C(=O)O)ccc2NC1c1cccc(NC(=O)c2ccccc2)c1 (stereo not shown) [Example 12, 2-(3-Benzoylamino-phenyl)-3,3-dimethyl-1,2,3,4-tetrahydro-quinoline-6-carboxylic acid] was tested. Which E30 did it give?
**A.** The E30 was 1.22.

**Q.** Which E30 does the source give for CC1(C)Cc2cc(C(=O)O)ccc2NC1c1cccc(NC(=O)Nc2cccc(F)c2)c1 (stereo not shown) [Example 13, 2-{3-[3-(3-Fluoro-phenyl)-ureido]-phenyl}-3,3-dimethyl-1,2,3,4-tetrahydro-quinoline-6-carboxylic acid] here?
**A.** The E30 was 1.21.

**Q.** Which E30 does the source give for CC1(C)Cc2cc(C(=O)O)ccc2NC1c1cccc(C(=O)Nc2ccccc2)c1 (stereo not shown) [Example 14, 3,3-Dimethyl-2-(3-phenylcarbamoyl-phenyl)-1,2,3,4-tetrahydro-quinoline-6-carboxylic acid] here?
**A.** Its E30 is 1.2.

**Q.** How did the E30 turn out when CC(C)(Nc1cccc(C2Nc3ccc(C(=O)O)cc3CC2(C)C)c1)C(=O)O (stereo not shown) [Example 15, 2-[3-(1-Carboxy-1-methyl-ethylamino)-phenyl]-3,3-dimethyl-1,2,3,4-tetrahydro-quinoline-6-carboxylic acid] was run?
**A.** Its E30 is 3.59.

**Q.** CN1CCN(c2cccc(C3Nc4ccc(C(=O)O)cc4CC3(C)C)c2)C1=O (stereo not shown) [Example 16, 3,3-Dimethyl-2-[3-(3-methyl-2-oxo-imidazolidin-1-yl)-phenyl]-1,2,3,4-tetrahydro-quinoline-6-carboxylic acid] was tested. Which E30 did it give?
**A.** Its E30 is 1.59.

**Q.** Which E30 does the source give for CC1(C)Cc2cc(C(=O)O)ccc2NC1c1cccc(N2CCNC2=O)c1 (stereo not shown) [Example 17, 3,3-Dimethyl-2-[3-(2-oxo-imidazolidin-1-yl)-phenyl]-1,2,3,4-tetrahydro-quinoline-6-carboxylic acid] here?
**A.** The E30 was 1.45.

**Q.** CC1(C)Cc2cc(C(=O)O)ccc2NC1c1cccc(N2CC(=O)NCC2=O)c1 (stereo not shown) [Example 18, 2-[3-(2,5-Dioxo-piperazin-1-yl)-phenyl]-3,3-dimethyl-1,2,3,4-tetrahydro-quinoline-6-carboxylic acid] was tested. Which E30 did it give?
**A.** Its E30 is 1.41.

**Q.** CC1(C)Cc2cc(C(=O)O)ccc2NC1c1cccc(N2CC(=O)NC2=O)c1 (stereo not shown) [Example 19, 2-[3-(2,4-Dioxo-imidazolidine-1-yl)-phenyl]-3,3-dimethyl-1,2,3,4-tetrahydro-quinoline-6-carboxylic acid] was tested. Which E30 did it give?
**A.** The E30 was 1.38.

**Q.** CC1(C)Cc2cc(C(=O)O)ccc2NC1c1cccc(NC(=O)c2ccc(F)cc2)c1 (stereo not shown) [Example 20, 2-[3-(4-Fluoro-benzoylamino)-phenyl]-3,3-dimethyl-1,2,3,4-tetrahydro-quinoline-6-carboxylic acid] was tested. Which E30 did it give?
**A.** Its E30 is 1.25.

**Q.** Which E30 does the source give for CC1(C)Cc2cc(C(=O)O)ccc2NC1c1cccc(NC(=O)N2CCOCC2)c1 (stereo not shown) [Example 21, 3,3-Dimethyl-2-{3-[(morpholine-4-carbonyl)-amino]-phenyl}-1,2,3,4-tetrahydro-quinoline-6-carboxylic acid] here?
**A.** Its E30 is 1.42.

**Q.** How did the E30 turn out when CC1(C)Cc2cc(C(=O)O)ccc2NC1c1cccc(NC(=O)N2CCCCC2)c1 (stereo not shown) [Example 22, 3,3-Dimethyl-2-{3-[(piperidine-1-carbonyl)-amino]-phenyl}-1,2,3,4-tetrahydro-quinoline-6-carboxylic acid] was run?
**A.** The E30 was 1.39.

**Q.** Which E30 does the source give for CN(CC(=O)O)C(=O)c1ccc2c(c1)CC(C)(C)C(c1cccc(N3CCOCC3)c1)N2 (stereo not shown) [Example 23, {[3,3-Dimethyl-2-(3-morpholin-4-yl-phenyl)-1,2,3,4-tetrahydro-quinoline-6-carboxyl]-methyl-amino}-acetic acid] here?
**A.** The E30 was 1.32.

**Q.** CC1(C)Cc2cc(C(=O)N3CCC[C@H]3C(=O)O)ccc2NC1c1cccc(N2CCOCC2)c1 (stereo partly shown) [Example 24, 1-[3,3-Dimethyl-2-(3-morpholin-4-yl-phenyl)-1,2,3,4-tetrahydro-quinoline-6-carboxyl]-pyrrolidine-2-carboxylic acid] was tested. Which E30 did it give?
**A.** The E30 was 1.3.

**Q.** With CN(C)S(=O)(=O)Nc1cccc(C2Nc3ccc(C(=O)O)cc3CC2(C)C)c1 (stereo not shown) [Example 25, 2-(3-(N,N-dimethylsulfamoylamino)phenyl)-3,3-dimethyl-1,2,3,4-tetrahydroquinoline-6-carboxylic acid] as the compound, how does the E30 read?
**A.** The E30 was 1.29.

**Q.** CC1(C)Cc2cc(C(=O)O)ccc2NC1c1cccc(N2CCN(c3ccccc3)C2=O)c1 (stereo not shown) [Example 26, 3,3-Dimethyl-2-[3-(2-oxo-3-phenyl-imidazolidin-1-yl)-phenyl]-1,2,3,4-tetrahydro-quinoline-6-carboxylic acid] was tested. Which E30 did it give?
**A.** The E30 was 1.27.

**Q.** How did the E30 turn out when CN1CCN(C(=O)Nc2cccc(C3Nc4ccc(C(=O)O)cc4CC3(C)C)c2)CC1 (stereo not shown) [Example 27, 3,3-Dimethyl-2-{3-[(4-methyl-piperazine-1-carbonyl)-amino]-phenyl}-1,2,3,4-tetrahydro-quinoline-6-carboxylic acid] was run?
**A.** Its E30 is 1.24.

**Q.** With CC(C)(Nc1cccc(C2Nc3ccc(C(=O)NS(C)(=O)=O)cc3CC2(C)C)c1)C(=O)O (stereo not shown) [Example 28, 2-[3-(6-Methanesulfonylaminocarbonyl-3,3-dimethyl-1,2,3,4-tetrahydro-quinolin-2-yl)-phenylamino]-2-methyl-propionic acid] as the compound, how does the E30 read?
**A.** The E30 was 2.5.
